pIC50: −log10 of the molar value. Like-named read-outs stand apart in the source and are kept apart here.
Molecular target: HIS-TGF-βR1 T204D (Homo sapiens (Human), UniProt P36897, T204D)
Experiment: HTRF probe displacement assay with HIS-TGF-βR1 T204D
[1] = read-out: TGFbr1 IC50, HTRF probe displacement, 1 nM HIS-TGF-βR1 T204D, 1 hour at room temperature

Chain of HIS-TGF-βR1 T204D (P36897 34-503 T204D): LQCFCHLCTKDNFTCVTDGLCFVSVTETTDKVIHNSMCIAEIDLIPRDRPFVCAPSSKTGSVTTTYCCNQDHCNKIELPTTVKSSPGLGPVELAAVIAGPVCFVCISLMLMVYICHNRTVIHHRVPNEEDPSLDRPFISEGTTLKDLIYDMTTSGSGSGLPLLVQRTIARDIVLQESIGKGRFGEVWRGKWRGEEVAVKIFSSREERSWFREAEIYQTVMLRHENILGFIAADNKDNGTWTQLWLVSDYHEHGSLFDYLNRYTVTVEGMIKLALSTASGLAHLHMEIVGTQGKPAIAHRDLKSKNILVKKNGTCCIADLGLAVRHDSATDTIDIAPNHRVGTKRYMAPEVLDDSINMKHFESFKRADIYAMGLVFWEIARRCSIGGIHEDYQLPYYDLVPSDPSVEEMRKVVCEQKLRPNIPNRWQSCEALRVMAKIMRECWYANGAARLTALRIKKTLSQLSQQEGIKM

| pIC50 | pIC50 [1] | SMILES |
| --- | --- | --- |
| 8.17 | – | N#Cc1cnc2ccc(-c3c(-c4ccc(F)cc4)ncn3CCC(F)(F)F)nn12 [4′, 6-(4-(4-fluorophenyl)-1-(3,3,3-trifluoropropyl)-1H-imidazol-5-yl)imidazo[1,2-b]pyridazine-3-carbonitrile] |
| – | 8.26 | N#Cc1cnc2ccc(-c3c(-c4ccc(F)cc4)ncn3C3CCC(F)(F)C3)nn12 (stereo not shown) [5′, 6-(1-(3,3-difluorocyclopentyl)-4-(4-fluorophenyl)-1H-imidazol-5-yl)imidazo[1,2-b]pyridazine-3-carbonitrile] |
| – | 8.62 | N#Cc1cnc2ccc(-c3c(-c4ccc(F)cc4)ncn3C3CC3)nn12 [7′, 6-(1-cyclopropyl-4-(4-fluorophenyl)-1H-imidazol-5-yl)imidazo[1,2-b]pyridazine-3-carbonitrile] |
| – | 8.72 | N#Cc1cnc2ccc(-c3c(-c4ccc(F)cc4)ncn3CCF)nn12 [9′, 6-(1-(2-fluoroethyl)-4-(4-fluorophenyl)-1H-imidazol-5-yl)imidazo[1,2-b]pyridazine-3-carbonitrile] |
| – | 8.60 | CCn1cnc(-c2ccc(F)cc2)c1-c1ccc2ncc(C#N)n2n1 [10′, 6-(1-ethyl-4-(4-fluorophenyl)-1H-imidazol-5-yl)imidazo[1,2-b]pyridazine-3-carbonitrile] |
| – | 8.52 | CC(C)OCCn1cnc(-c2ccc(F)cc2)c1-c1ccc2ncc(C#N)n2n1 [11′, 6-(4-(4-fluorophenyl)-1-(2-isopropoxyethyl)-1H-imidazol-5-yl)imidazo[1,2-b]pyridazine-3-carbonitrile] |
| – | 8.68 | CC(C)(O)CCn1cnc(-c2ccc(F)cc2)c1-c1ccc2ncc(C#N)n2n1 [12′, 6-(4-(4-fluorophenyl)-1-(3-hydroxy-3-methylbutyl)-1H-imidazol-5-yl)imidazo[1,2-b]pyridazine-3-carbonitrile] |
| – | 7.77 | N#Cc1cnc2ccc(-c3c(-c4ccc(F)cc4)ncn3C3COC3)nn12 [13′, 6-(4-(4-fluorophenyl)-1-(oxetan-3-yl)-1H-imidazol-5-yl)imidazo[1,2-b]pyridazine-3-carbonitrile] |
| – | 8.70 | N#Cc1cnc2ccc(-c3c(-c4ccc(F)cc4)ncn3CCCO)nn12 [15′, 6-(4-(4-fluorophenyl)-1-(3-hydroxypropyl)-1H-imidazol-5-yl)imidazo[1,2-b]pyridazine-3-carbonitrile] |
| – | 7.98 | N#Cc1cnc2ccc(-c3[nH]cnc3-c3ccc(F)cc3)nn12 [18′, 6-(4-(4-fluorophenyl)-1H-imidazol-5-yl)imidazo[1,2-b]pyridazine-3-carbonitrile] |
| – | 8.00 | Cn1cnc(-c2ccc(F)cc2)c1-c1ccc2ncc(C#N)n2n1 [19′, 6-(4-(4-fluorophenyl)-1-methyl-1H-imidazol-5-yl)imidazo[1,2-b]pyridazine-3-carbonitrile] |
| – | 8.66 | N#Cc1cnc2ccc(-c3c(-c4ccc(F)cc4)ncn3CCC(F)F)nn12 [20′, 6-(1-(3,3-difluoropropyl)-4-(4-fluorophenyl)-1H-imidazol-5-yl)imidazo[1,2-b]pyridazine-3-carbonitrile] |
| – | 8.72 | N#Cc1cnc2ccc(-c3c(-c4ccc(F)cc4)ncn3CCCF)nn12 [21′, 6-(4-(4-fluorophenyl)-1-(3-fluoropropyl)-1H-imidazol-5-yl)imidazo[1,2-b]pyridazine-3-carbonitrile] |
| – | 8.92 | CC(F)(F)Cn1cnc(-c2ccc(F)cc2)c1-c1ccc2ncc(C#N)n2n1 [22′, 6-(1-(2,2-difluoropropyl)-4-(4-fluorophenyl)-1H-imidazol-5-yl)imidazo[1,2-b]pyridazine-3-carbonitrile] |
| – | 8.72 | CC(C)(F)Cn1cnc(-c2ccc(F)cc2)c1-c1ccc2ncc(C#N)n2n1 [23′, 6-(1-(2-fluoro-2-methylpropyl)-4-(4-fluorophenyl)-1H-imidazol-5-yl)imidazo[1,2-b]pyridazine-3-carbonitrile] |
| – | 9.40 | CC(C)n1cnc(-c2ccc(F)cc2)c1-c1ccc2ncc(C#N)n2n1 [24′, 6-(4-(4-fluorophenyl)-1-isopropyl-1H-imidazol-5-yl)imidazo[1,2-b]pyridazine-3-carbonitrile] |
| – | 8.59 | N#Cc1cnc2ccc(-c3c(-c4ccc(F)cc4)ncn3C34CC(C3)C4)nn12 [25′, 6-(1-(bicyclo[1.1.1]pentan-1-yl)-4-(4-fluorophenyl)-1H-imidazol-5-yl)imidazo[1,2-b]pyridazine-3-carbonitrile] |
| – | 7.03 | CC(C)(O)Cn1cnc(-c2ccc(F)cc2)c1-c1ccc2ncc(C#N)n2n1 [26′, 6-(4-(4-fluorophenyl)-1-(2-hydroxy-2-methylpropyl)-1H-imidazol-5-yl)imidazo[1,2-b]pyridazine-3-carbonitrile] |
| – | 9.22 | N#Cc1cnc2ccc(-c3c(-c4ccc(F)cc4)ncn3C3CC(CO)C3)nn12 (stereo not shown) [27′, 6-(4-(4-fluorophenyl)-1-(3-(hydroxymethyl)cyclobutyl)-1H-imidazol-5-yl)imidazo[1,2-b]pyridazine-3-carbonitrile] |
| – | 8.04 | CCC(C)(C)n1cnc(-c2ccc(F)cc2)c1-c1ccc2ncc(C#N)n2n1 [30′, 6-(4-(4-fluorophenyl)-1-(tert-pentyl)-1H-imidazol-5-yl)imidazo[1,2-b]pyridazine-3-carbonitrile] |
| – | 8.72 | N#Cc1cnc2ccc(-c3c(-c4ccc(F)cc4)ncn3CC3CCCO3)nn12 (stereo not shown) [31′, 6-(4-(4-fluorophenyl)-1-((tetrahydrofuran-2-yl)methyl)-1H-imidazol-5-yl)imidazo[1,2-b]pyridazine-3-carbonitrile] |
| – | 9.00 | N#Cc1cnc2ccc(-c3c(-c4ccc(F)c(Cl)c4)ncn3CC(F)F)nn12 [33′, 6-(4-(3-chloro-4-fluorophenyl)-1-(2,2-difluoroethyl)-1H-imidazol-5-yl)imidazo[1,2-b]pyridazine-3-carbonitrile] |
| – | 9.05 | N#Cc1cnc2ccc(-c3c(-c4ccc(F)c(Cl)c4)ncn3CCF)nn12 [34′, 6-(4-(3-chloro-4-fluorophenyl)-1-(2-fluoroethyl)-1H-imidazol-5-yl)imidazo[1,2-b]pyridazine-3-carbonitrile] |
| 8.59 | – | N#Cc1cnc2ccc(-c3c(-c4ccc(F)c(Cl)c4)ncn3CCC(F)(F)F)nn12 [35′, 6-(4-(3-chloro-4-fluorophenyl)-1-(3,3,3-trifluoropropyl)-1H-imidazol-5-yl)imidazo[1,2-b]pyridazine-3-carbonitrile] |
| – | 8.89 | N#Cc1cnc2ccc(-c3c(-c4ccc(F)c(Cl)c4)ncn3C3CC3)nn12 [36′, 6-(4-(3-chloro-4-fluorophenyl)-1-cyclopropyl-1H-imidazol-5-yl)imidazo[1,2-b]pyridazine-3-carbonitrile] |
| – | 8.60 | CC(C)(O)CCn1cnc(-c2ccc(F)c(Cl)c2)c1-c1ccc2ncc(C#N)n2n1 [37′, 6-(4-(3-chloro-4-fluorophenyl)-1-(3-hydroxy-3-methylbutyl)-1H-imidazol-5-yl)imidazo[1,2-b]pyridazine-3-carbonitrile] |
| – | 9.00 | N#Cc1cnc2ccc(-c3c(-c4ccc(F)c(Cl)c4)ncn3CCCO)nn12 [38′, 6-(4-(3-chloro-4-fluorophenyl)-1-(3-hydroxypropyl)-1H-imidazol-5-yl)imidazo[1,2-b]pyridazine-3-carbonitrile] |
| – | 9.22 | N#Cc1cnc2ccc(-c3c(-c4ccc(F)c(Cl)c4)ncn3CCC3CCC3)nn12 [40′, 6-(4-(3-chloro-4-fluorophenyl)-1-(2-cyclobutylethyl)-1H-imidazol-5-yl)imidazo[1,2-b]pyridazine-3-carbonitrile] |

From patent publication US9884868B2, “TGF-beta inhibitors” (Rigel Pharmaceuticals, Inc., priority 2015, dated 2018)
